Laboratory results as given in a compilation of properties of binary mixtures (doi:10.1039/b704843b).

Assay: xn = mol fraction of the nth substance listed
Settings: 101 kPa

O + CCCC[n+]1ccn(C)c1.F[P-](F)(F)(F)(F)F
x1 = 1
Settings	viscosity [mPa·s]
298.15 K	0.894
308.15 K	0.717
313.15 K	0.659

CCCC[n+]1ccn(C)c1.F[P-](F)(F)(F)(F)F + O
viscosity [mPa·s]
Settings	298.15 K	303.15 K	308.15 K	313.15 K	318.15 K
x1 = 0.0003	0.909	0.809	0.72	0.662	0.604
x1 = 0.0006	0.917	0.815	0.725	0.667	0.609
x1 = 0.001	0.923	0.822	0.73	0.672	0.614
x1 = 0.0013	–	0.83	0.737	0.678	0.62
